In US8901118B2, “Compounds and methods for kinase modulation, and indications therefor” (Plexxikon Inc., priority 2010, dated 2014) one finds IC50 data, which are given here for eleven compounds.

One experiment addresses CYP2D6 (Homo sapiens, UniProt P10635). As to the kind of experiment: CYP2D6 inhibition (fluorescent substrate AMMC). As to conditions: read-out: Cyp IC50 2D6. The format is in vitro ADME. A digest of the protocol: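 Inhibition is measured as the drop in fluorescent metabolite formation across a 10-point compound titration with NADPH regeneration at 37 °C. Incubation lasts 15 min for CYP1A2, 45 min for CYP2C9 and 30 min for CYP2C19 and CYP2D6.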

Another experiment concerns the target CYP3A4(BFC) (Homo sapiens, UniProt P08684). As to the kind of experiment: CYP3A4(BFC) inhibition. The class given is in vitro ADME. The conditions noted are these: CYP3A4, substrate BFC; read-out: Cyp IC50 3A4(BFC). The gist of the method: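 Inhibition of human CYP3A4 with the BFC substrate was measured by fluorescence loss of the metabolized product. Compounds at 100 mM in DMSO were diluted 1 μL into 82 μL acetonitrile, then 11 μL into 204 μL cofactor mix with NADPH regeneration solutions, and serially diluted 1:1 to 10 points. Plates were incubated 30 min at 37° C and read at 409 ex/460 em to obtain IC50.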

The subject of another experiment is SKNSH cells. In words: SKNSH (human neuroblastoma) cell proliferation assay (ATPlite). The class given is cell-based. The conditions noted are these: SK-N-SH, read-out: Inhibition of Cell Proliferation IC50, SKNSH. The gist of the method:
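SK-N-SH human neuroblastoma cells grown in RPMI with 10% FBS were pelleted, resuspended at 2×10^4 cells/mL, and plated at 3,000 cells per well (150 μL) in 96-well plates, then kept overnight at 37° C. in 5% CO2. Compounds in an 8-point 1:3 DMSO series were added as 0.75 μL aliquots.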
For orientation: In ATP-based viability assays light output follows the ATP content of the culture.

Chain of CYP3A4(BFC) (P08684 whole entry): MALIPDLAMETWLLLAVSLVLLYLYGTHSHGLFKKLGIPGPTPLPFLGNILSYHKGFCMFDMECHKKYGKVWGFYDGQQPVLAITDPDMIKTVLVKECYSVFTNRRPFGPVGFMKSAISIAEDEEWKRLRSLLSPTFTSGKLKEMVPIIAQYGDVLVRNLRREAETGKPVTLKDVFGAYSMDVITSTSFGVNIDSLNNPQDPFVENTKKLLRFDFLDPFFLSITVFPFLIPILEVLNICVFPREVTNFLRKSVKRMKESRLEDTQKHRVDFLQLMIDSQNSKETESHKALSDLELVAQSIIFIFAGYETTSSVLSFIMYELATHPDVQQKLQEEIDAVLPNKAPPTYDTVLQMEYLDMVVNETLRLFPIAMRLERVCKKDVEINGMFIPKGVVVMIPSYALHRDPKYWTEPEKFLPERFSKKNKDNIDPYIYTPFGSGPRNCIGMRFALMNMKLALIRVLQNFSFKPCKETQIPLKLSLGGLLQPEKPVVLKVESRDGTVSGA
Chain of CYP2D6 (P10635 whole entry): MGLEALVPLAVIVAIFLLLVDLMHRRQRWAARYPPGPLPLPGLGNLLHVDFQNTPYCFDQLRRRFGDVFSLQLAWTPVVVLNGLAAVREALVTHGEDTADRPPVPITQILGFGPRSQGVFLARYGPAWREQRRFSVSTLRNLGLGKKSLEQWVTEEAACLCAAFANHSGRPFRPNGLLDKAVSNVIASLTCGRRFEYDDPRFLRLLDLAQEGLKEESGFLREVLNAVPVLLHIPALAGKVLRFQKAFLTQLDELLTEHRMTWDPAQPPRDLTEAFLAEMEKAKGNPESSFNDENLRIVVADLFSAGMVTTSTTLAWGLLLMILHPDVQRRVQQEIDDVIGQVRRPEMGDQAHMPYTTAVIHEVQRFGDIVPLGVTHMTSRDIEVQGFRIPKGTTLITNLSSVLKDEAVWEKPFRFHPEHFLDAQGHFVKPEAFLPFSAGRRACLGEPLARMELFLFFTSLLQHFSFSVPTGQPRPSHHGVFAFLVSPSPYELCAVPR

Take `Cc1cnc2[nH]cc(Cc3ccc(NC4CCCCC4)nc3F)c2c1` [Compound P-3008, cyclohexyl-[6-fluoro-5-(5-methyl-1H-pyrrolo[2,3-b]pyridin-3-ylmethyl)-pyridin-2-yl]-amine]: the IC50 is over 10 µM on CYP2D6 and 5 to 10 µM on CYP3A4(BFC).
On the same counts, the results for `Fc1nc(Nc2ccc(C3CC3)nc2)ccc1Cc1c[nH]c2ncnc(C3CC3)c12` [Compound P-4041, (6-Cyclopropyl-pyridin-3-yl)-[5-(4-cyclopropyl-7H-pyrrolo[2,3-d]pyrimidin-5-ylmethyl)-6-fluoro-pyridin-2-yl]-amine] are over 10 µM and over 10 µM.
In the case of `Nc1ncnc2[nH]cc(C(=O)c3ccc(NC4CCC(F)(F)CC4)nc3Cl)c12` [Compound P-4046, (4-amino-7H-pyrrolo[2,3-d]pyrimidin-5-yl)-[2-chloro-6-[(4,4-difluorocyclohexyl)amino]-3-pyridyl]methanone], the IC50 in the experiment with SKNSH cells is under 10 µM.
For `CC(C)=CNc1ncnc2[nH]cc(C(=O)c3ccc(NC4CCC(F)(F)CC4)nc3Cl)c12` [Compound P-4047, [2-chloro-6-[(4,4-difluorocyclohexyl)amino]-3-pyridyl]-[4-(2-methylprop-1-enylamino)-7H-pyrrolo[2,3-d]pyrimidin-5-yl]methanone], the IC50 on CYP2D6 and at CYP3A4(BFC) was over 10 µM in each case.
For the compound `Nc1ncnc2[nH]cc(C(=O)c3ccc(Nc4ccc(C5CC5)nc4)nc3F)c12` [Compound P-4048, (4-amino-7H-pyrrolo[2,3-d]pyrimidin-5-yl)-[6-[(6-cyclopropyl-3-pyridyl)amino]-2-fluoro-3-pyridyl]methanone], the IC50 with SKNSH cells is under 1 µM; on CYP2D6 it was over 10 µM; at CYP3A4(BFC), over 10 µM.
On to `CC(C)(O)CNc1ncnc2[nH]cc(C(=O)c3ccc(Nc4ccc(C5CC5)nc4)nc3F)c12` [Compound P-4049, [6-[(6-cyclopropyl-3-pyridyl)amino]-2-fluoro-3-pyridyl]-[4-[(2-hydroxy-2-methyl-propyl)amino]-7H-pyrrolo[2,3-d]pyrimidin-5-yl]methanone], for which the IC50 was under 1 µM in the experiment on SKNSH cells, over 10 µM at CYP2D6 and over 10 µM at CYP3A4(BFC).
For the compound `CCNc1ncnc2[nH]cc(C(=O)c3ccc(NC4CCC(F)(F)CC4)nc3Cl)c12` [Compound P-4050, [2-chloro-6-[(4,4-difluorocyclohexyl)amino]-3-pyridyl]-[4-(ethylamino)-7H-pyrrolo[2,3-d]pyrimidin-5-yl]methanone], the IC50 in the experiment with SKNSH cells was under 1 µM; at CYP2D6 it was over 10 µM; at CYP3A4(BFC), over 10 µM.
With `CCNc1ncnc2[nH]cc(C(=O)c3cnc(NC4CCC(F)(F)CC4)c(F)c3)c12` [Compound P-4051, [6-[(4,4-difluorocyclohexyl)amino]-5-fluoro-3-pyridyl]-[4-(ethylamino)-7H-pyrrolo[2,3-d]pyrimidin-5-yl]methanone], the IC50 is under 1 µM in the experiment with SKNSH cells, over 10 µM on CYP2D6 and over 10 µM on CYP3A4(BFC).
As to `O=C(c1cnc(NC2CCC(F)(F)CC2)c(F)c1)c1c[nH]c2ncnc(NCC(F)(F)F)c12` [Compound P-4052, [6-[(4,4-difluorocyclohexyl)amino]-5-fluoro-3-pyridyl]-[4-(2,2,2-trifluoroethylamino)-7H-pyrrolo[2,3-d]pyrimidin-5-yl]methanone], the results for the IC50 in the experiment on SKNSH cells, on CYP2D6 and at CYP3A4(BFC) were over 1 µM, over 10 µM and over 10 µM, respectively.
Turning to `O=C(c1cnc(NC2CCC(F)(F)CC2)c(F)c1)c1c[nH]c2ncnc(NC3CC3)c12` [Compound P-4053, [4-(cyclopropylamino)-7H-pyrrolo[2,3-d]pyrimidin-5-yl]-[6-[(4,4-difluorocyclohexyl)amino]-5-fluoro-3-pyridyl]methanone], the IC50 with SKNSH cells was under 1 µM; on CYP2D6, over 10 µM; at CYP3A4(BFC) it was over 10 µM.
As for `CNc1ncnc2[nH]cc(C(=O)c3cnc(NC4CCC(F)(F)CC4)c(F)c3)c12` [Compound P-4054, [6-[(4,4-difluorocyclohexyl)amino]-5-fluoro-3-pyridyl]-[4-(methylamino)-7H-pyrrolo[2,3-d]pyrimidin-5-yl]methanone], the figures for the IC50 with SKNSH cells, on CYP2D6 and on CYP3A4(BFC) were under 10 µM, over 10 µM and over 10 µM, respectively.
